Laboratory results as given in ChEMBL document CHEMBL1201862, “PubChem BioAssay data set” (2004).
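Values below derive from 48-hour exposures of cells grown in 96-well plates, with endpoints linearly interpolated between the two concentrations bracketing the appropriate inhibition level. Here, GI50 denotes the concentration required for 50% inhibition of growth.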 Activity calls are given as the source filed them. Rule as the data show it: active = GI50 up to about 1.1 µM and inactive = higher.

Tests used:
Assay in all cases: NCI tumour cell line growth inhibition, 48 h
MDA-MB-435 = tested on: MDA-MB-435
HL-60 = tested on: HL-60
SN12C = tested on: SN12C
LOX IMVI = tested on: LOX IMVI
PC-3 = tested on: PC-3
CAKI-1 = tested on: CAKI-1
SNB-75 = tested on: SNB-75
SNB-19 = tested on: SNB-19
RPMI-8226 = tested on: RPMI-8226
NCI-H226 = tested on: NCI-H226
OVCAR-4 = tested on: OVCAR-4
MOLT-4 = tested on: MOLT-4
MCF7 = tested on: MCF7
HCT-15 = tested on: HCT-15
MDA-N = tested on: MDA-N
MDA-MB-231 = tested on: MDA-MB-231
OVCAR-8 = tested on: OVCAR-8
RXF 393 = tested on: RXF 393
A498 = tested on: A498
BT-549 = tested on: BT-549

SMILES: O=C(O)/C=C/C(=O)O [FUMARIC ACID]
- GI50 (MDA-MB-435): > 100 µM (inactive)
- GI50 (HL-60): > 100 µM (inactive)
- GI50 (SN12C): > 100 µM (inactive)
- GI50 (LOX IMVI): > 100 µM (inactive)
- GI50 (PC-3): > 100 µM (inactive)
- GI50 (CAKI-1): > 100 µM (inactive)
- GI50 (SNB-75): > 100 µM (inactive)
- GI50 (SNB-19): > 100 µM (inactive)
- GI50 (RPMI-8226): > 100 µM (inactive)
- GI50 (NCI-H226): > 100 µM (inactive)
- GI50 (OVCAR-4): > 100 µM (inactive)
- GI50 (MOLT-4): > 100 µM (inactive)
- GI50 (MCF7): > 100 µM (inactive)
- GI50 (HCT-15): > 100 µM
- GI50 (MDA-N): > 100 µM (inactive)
- GI50 (MDA-MB-231): > 100 µM (inactive)
- GI50 (OVCAR-8): > 100 µM (inactive)

SMILES: CC(C)[C@H](NC(=O)OCc1ccccc1)C(=O)N[C@H](/C=C/C(=O)OC(C)(C)C)CO
- GI50 (RXF 393): > 100 µM (inactive)
- GI50 (A498): > 100 µM (inactive)
- GI50 (MDA-MB-435): > 100 µM (inactive)
- GI50 (HL-60): 57.1 µM (inactive)
- GI50 (SN12C): > 100 µM (inactive)
- GI50 (LOX IMVI): > 100 µM (inactive)
- GI50 (PC-3): 68.1 µM (inactive)
- GI50 (CAKI-1): > 100 µM (inactive)
- GI50 (SNB-75): 0.12 µM (active)
- GI50 (SNB-19): > 100 µM (inactive)
- GI50 (NCI-H226): > 100 µM (inactive)
- GI50 (OVCAR-4): > 100 µM (inactive)
- GI50 (MOLT-4): > 100 µM (inactive)
- GI50 (MCF7): > 100 µM (inactive)
- GI50 (HCT-15): > 100 µM
- GI50 (MDA-N): > 100 µM (inactive)
- GI50 (MDA-MB-231): > 100 µM (inactive)
- GI50 (OVCAR-8): > 100 µM (inactive)

SMILES: CC(=O)OCC1OC(n2c(C)c(C(C)=O)c(-c3ccc(Cl)cc3)c(C#N)c2=S)C(OC(C)=O)C(OC(C)=O)C1OC(C)=O (stereo unspecified)
- GI50 (RXF 393): > 100 µM (inactive)
- GI50 (A498): > 100 µM (inactive)
- GI50 (MDA-MB-435): > 100 µM (inactive)
- GI50 (HL-60): > 100 µM (inactive)
- GI50 (SN12C): > 100 µM (inactive)
- GI50 (LOX IMVI): > 100 µM (inactive)
- GI50 (PC-3): > 100 µM (inactive)
- GI50 (SNB-75): > 100 µM (inactive)
- GI50 (SNB-19): > 100 µM (inactive)
- GI50 (NCI-H226): > 100 µM (inactive)
- GI50 (OVCAR-4): > 100 µM (inactive)
- GI50 (MOLT-4): > 100 µM (inactive)
- GI50 (MCF7): > 100 µM (inactive)
- GI50 (HCT-15): > 100 µM
- GI50 (MDA-N): > 100 µM (inactive)
- GI50 (MDA-MB-231): > 100 µM (inactive)
- GI50 (OVCAR-8): > 100 µM (inactive)

SMILES: OC(c1ccccc1)c1c(-c2ccccc2)[nH]c(-c2ccccc2)c1C(O)c1ccccc1 (stereo unspecified)
- GI50 (RXF 393): 2.88 µM (inactive)
- GI50 (A498): 3.79 µM (inactive)
- GI50 (MDA-MB-435): 3.18 µM (inactive)
- GI50 (HL-60): 2.28 µM (inactive)
- GI50 (SN12C): 2.38 µM (inactive)
- GI50 (LOX IMVI): 2.19 µM (inactive)
- GI50 (PC-3): 2.54 µM (inactive)
- GI50 (CAKI-1): 2.55 µM (inactive)
- GI50 (SNB-19): 3.56 µM (inactive)
- GI50 (RPMI-8226): 2.09 µM (inactive)
- GI50 (NCI-H226): 2.4 µM (inactive)
- GI50 (OVCAR-4): < 0.01 µM (active)
- GI50 (MOLT-4): 2.94 µM (inactive)
- GI50 (MCF7): 3.78 µM (inactive)
- GI50 (HCT-15): 3.76 µM
- GI50 (MDA-N): 2.59 µM (inactive)

SMILES: O=C(Nc1nc2ncn(CCOC(=O)c3ccccc3)c2c(=O)[nH]1)c1ccccc1
- GI50 (RXF 393): 42.4 µM (inactive)
- GI50 (A498): > 100 µM (inactive)
- GI50 (MDA-MB-435): 2.48 µM (inactive)
- GI50 (HL-60): 2.59 µM (inactive)
- GI50 (SN12C): 11.8 µM (inactive)
- GI50 (LOX IMVI): 5.92 µM (inactive)
- GI50 (PC-3): 47.2 µM (inactive)
- GI50 (CAKI-1): 20.7 µM (inactive)
- GI50 (SNB-75): 18.9 µM (inactive)
- GI50 (SNB-19): 17.3 µM (inactive)
- GI50 (RPMI-8226): 6.1 µM (inactive)
- GI50 (NCI-H226): 28.4 µM (inactive)
- GI50 (MOLT-4): 6.64 µM (inactive)
- GI50 (MCF7): 4.4 µM (inactive)
- GI50 (HCT-15): 4.7 µM
- GI50 (MDA-N): 2.54 µM (inactive)
- GI50 (MDA-MB-231): 3.79 µM (inactive)
- GI50 (OVCAR-8): 33.3 µM (inactive)

SMILES: CC(=O)c1sc2c(c1OC(=O)c1cccs1)c(=O)n(-c1ccccc1)c(=S)n2-c1ccccc1
- GI50 (RXF 393): 3.86 µM (inactive)
- GI50 (A498): 4.71 µM (inactive)
- GI50 (MDA-MB-435): 8.24 µM (inactive)
- GI50 (HL-60): 26 µM (inactive)
- GI50 (SN12C): 3.94 µM (inactive)
- GI50 (LOX IMVI): 4.84 µM (inactive)
- GI50 (PC-3): 3.63 µM (inactive)
- GI50 (CAKI-1): 30.8 µM (inactive)
- GI50 (SNB-75): 29.4 µM (inactive)
- GI50 (SNB-19): 12.5 µM (inactive)
- GI50 (RPMI-8226): 4.32 µM (inactive)
- GI50 (NCI-H226): 3.08 µM (inactive)
- GI50 (OVCAR-4): 22 µM (inactive)
- GI50 (MOLT-4): 20.3 µM (inactive)
- GI50 (MCF7): 21 µM (inactive)
- GI50 (HCT-15): 17.5 µM
- GI50 (MDA-N): 5.5 µM (inactive)
- GI50 (MDA-MB-231): 14.4 µM (inactive)
- GI50 (OVCAR-8): 5.01 µM (inactive)

SMILES: O=C(O)CCCCC1CCSS1 (stereo not drawn) [LIPOIC ACID, ALPHA]
- GI50 (MDA-MB-435): > 100 µM (inactive)
- GI50 (HL-60): 34.3 µM (inactive)
- GI50 (SN12C): > 10 µM (inactive)
- GI50 (LOX IMVI): > 100 µM (inactive)
- GI50 (PC-3): > 100 µM (inactive)
- GI50 (CAKI-1): > 100 µM (inactive)
- GI50 (SNB-75): 93.8 µM (inactive)
- GI50 (SNB-19): > 100 µM (inactive)
- GI50 (RPMI-8226): > 100 µM (inactive)
- GI50 (NCI-H226): > 100 µM (inactive)
- GI50 (OVCAR-4): > 100 µM (inactive)
- GI50 (MOLT-4): > 100 µM (inactive)
- GI50 (MCF7): > 100 µM (inactive)
- GI50 (HCT-15): > 100 µM
- GI50 (MDA-N): > 100 µM (inactive)
- GI50 (MDA-MB-231): > 100 µM (inactive)
- GI50 (OVCAR-8): > 100 µM (inactive)

SMILES: N#C/C(=C\c1c[nH]c2ccccc12)C(=O)c1ccc(O)c(O)c1
- GI50 (RXF 393): 38.9 µM (inactive)
- GI50 (A498): 41.6 µM (inactive)
- GI50 (MDA-MB-435): 20.8 µM (inactive)
- GI50 (HL-60): 13.2 µM (inactive)
- GI50 (SN12C): 23.1 µM (inactive)
- GI50 (LOX IMVI): 23.7 µM (inactive)
- GI50 (PC-3): 33.8 µM (inactive)
- GI50 (CAKI-1): 41.5 µM (inactive)
- GI50 (SNB-75): 41 µM (inactive)
- GI50 (SNB-19): 32.4 µM (inactive)
- GI50 (RPMI-8226): 15.4 µM (inactive)
- GI50 (NCI-H226): 47.4 µM (inactive)
- GI50 (OVCAR-4): 27.2 µM (inactive)
- GI50 (MOLT-4): 12.4 µM (inactive)
- GI50 (MCF7): 12 µM (inactive)
- GI50 (HCT-15): 22.9 µM
- GI50 (MDA-N): 47.1 µM (inactive)
- GI50 (OVCAR-8): 38.5 µM (inactive)
- GI50 (BT-549): 11.1 µM (inactive)
